In patent US8575376B2, “Steroide anionic compounds, method of their production, usage and pharmaceutical preparation involving them” (Ustav Organicke Chemie A Biochemie Akademie Ved Ceske …, priority 2009, dated 2013):

Legend:
Format in all cases: in vivo, rat
rats [1] = assay: Ischemic-hypoxic brain damage (bilateral carotid occlusion + 10% O2): AAPA, rotarod, beam walking
Description: The effect of compound from example 9 on cognitive coordination and motor activity was examined in stroke model of ischemic brain injury. Ischemic-hypoxic damage was induced by bilateral occlusion of common carotid arteries and subsequent confinement in box with 10% O2 (for 30 min). The animals were injected i.p. by compound from example 9 dissolved in β-cyclodextrine (1 mg/kg) immediately after their removal from box. Ischemic group was injected only by β-cyclodextrine in the same time and volume. Surgery was conducted under anesthesia (xylazine 6 mg/kg, thiopental 50 mg/kg).
It is known that ischemia-hypoxia causes neuronal necrosis in specifically vulnerable areas of brain. The two-vessel occlusion/hypoxic model gives rise to stroke changes, for example in cells of the hippocampus, caudatoputamen and neocortex. As such structures are intimately involved in memory, cognitive and motor processes, ischemia/hypoxia leads to impairment in these functions. Used animal model of stroke damage dealing with ischemia/hypoxia has enabled the identification of deleterious phenomena that may be corrected or neutralized by drugs.
The effect of ischemic was evaluated a week after surgical procedures in AAPA task, beam walking and rotarod. Ischemia led to deterioration of motor activity (rotarod and beam walking) and deficit in cognitive coordination.

Long-Evans rats = assay: AAPA task after bilateral NMDA excitotoxic lesion of the hippocampus
Description: Neuroprotective action of 3α-substituted derivatives of pregnanolone was tested in the well-established model represented by excitotoxic bilateral lesion of the hippocampus with NMDA, an agonist of NMDA receptors. This model represents a widely-accepted paradigm of excitotoxicity induced experimental disruption of memory functions in laboratory rodents. The model also mimics into some extent the excessive action of glutamate on cells in the hippocampus, which contains abundance of NMDA receptors. The effect of lesions and possible neuroprotective action can be observed at various intervals after treatment both on the histological and behavioral level, provided that a suitable hippocampus-dependent memory task is available. In our studies, we have used a hippocampus-dependent spatial task AAPA (see above), which requires spatial and executive abilities and involves so-called “cognitive coordination” (Wesierska et al., 2005). Again, all manipulations with animals conformed to current legislation and Institutional recommendations on animal care and were approved by ethical-care committee.
In this phase of experiment, we have studied the effect of compound from Example 9 (and relation of this effect to dose) on NMDA excitotoxic hippocampal lesion after various intervals from lesioning. 150 adult male Long-Evans rats (250-350 g) were used in the study. Rats were housed in transparent plastic cages (25×25×40 cm) in air-conditioned animal room with 12/12 h dark/light rhythmicity. All rats had free access to food and water throughout the study.
During surgery, animals were deeply anesthetized by isoflurane inhalation anesthesia (3.5%, driven by air). Initial sedation was pursued in initiation chamber filled with diethyl ether vapor. During whole anesthesia, vital functions of animals were precisely monitored by the person pursuing surgery. After fixation in the stereotaxic apparatus (Kopf Instruments) the skull was exposed and small trephine openings were drilled with micro driller and subsequently, 1 ul of NMDA solution ([…] NMDA in saline buffered with calcium dihydrogenphosphate to pH=7.2) was microinjected into both dorsal hippocampi. The stereotaxic coordinates (AP=4; L=±2.5; DV=4) were measured from a rigorous atlas (Paxinos and Watson, 2005) and later verified from histological examination. Rats were then placed into soft post-surgery boxes. […] Doses of compound from Example 9 were: 0.01 mg/kg, 0.1 mg/kg and 10 mg/kg of b.w. In control groups and lesion-only groups, we applied only saline and NMDA, respectively. Solution of compound from Example 9 (0.01 mg/2 ml, 0.1 mg/2 ml or 10 mg/2 ml dissolved in cyclodextrin) was applied s.c. at a volume of 2 ml/kg.
Prior to behavioral observations, animals were left for 7 days to recover after surgery. After this recovery period, two days (each consisting of two sessions) of AAPA training were conducted. Each rat was initially placed onto rotating (1 rpm) circular arena containing a to-be-avoided sector (60°), fixed in the coordinate frame of the room (Stuchlik et al., 2008). Upon entrance into the prohibited sector, rat was punished by a mild electric footshock (˜0.3 mA] delivered from low-impedance subcutaneous wire to contact between rats paws and grounded floor (with highest voltage drop in rats feet). Rats wore a latex harness on their backs, holding an infrared light-emitting diode (LED), which was sampled by TV camera mounted above the arena and connected to a computer digitizing system (iTrack, Biosignal Group, USA). The shock sector is not directly perceptible for animals and its location can be determined solely by its relationships with distal room landmarks. […] The task is highly dependent upon hippocampus, with unilateral inactivation of this structure leading to avoidance deficit (Cimadevilla et al., 2001). This was the reason why we have selected this task for NMDA-induced impairment and detection of putative neuroprotective action of our compound (Example 9). […]

rats [2] = assay: Forced swim test; settings: 1 mg/kg i.p., 60 min prior, p<0.001
Description: Forced swim test is an experimental model of depression and excessive stress used in laboratory rodents. Rats were randomly assigned to two groups of seven animals each. Control group received an injection of cyclodextrine (i.p.) 60 min. prior to experiment, while experimental group was injected i.p. with the compound from example 9 in a dose of 1 mg/kg 60 minutes prior to the experiment. Rats were forced to swim by being individually placed into a bucket (30 cm diameter, 28 cm height) containing water (25° C.). Immobility (floating) in the water is interpreted as a state of despair when the animals realize that an escape is impossible. Immobility was defined as floating (as opposed to active swimming) with minimal effort required for keeping the head above water. All animals received a single 30-minute trial and their behaviour was monitored by an experimenter. The trial was divided into six 5-minute intervals and floating of at least 30 second duration within each interval was recorded by the experimenter.

Wistar rats = assay: Spontaneous EEG and epileptic afterdischarges in awake rats
From the text: To assess the influence of the compound from example 9 on spontaneous EEG, evoked potentials and epileptic afterdischarges, recording electrodes were implanted into the epidural spaces of the adult Wistar rats. Rats were anaesthetized with isoflurane (1.5-2%) and 4 silver wire bare electrodes were inserted epidurally over sensorimotor cortex. Reference and ground electrodes were placed above cerebellum. The whole montage was fixed to the skull with dental acrylic.
After recovery period (1 week), animals were placed into the plastic boxes and connected to the Video EEG monitoring (VisionBrain/). After 1 hour of background recording the compound from example 9 was administered at the dose of 0.01 mg/kg and EEG was recorded for next 24 hours. Analysis of EEG was performed in a custom-based MATLAB script. Power of the EEG signal was calculated from FFT in frequency band 1.5-45 Hz. Length and duration of spike and wave afterdischarges (SPW) was measured from EEG to assess effect of compound from example 9 (0.01 mg/kg and 10 mg/kg) on epileptiform activity.

[3] = 1 mg/kg i.p. immediately after hypoxia, tested a week later
[4] = 10 mg/kg s.c., 30 min prior to and after lesion, or 120 min after lesion

SMILES: CC(=O)[C@H]1CC[C@H]2[C@@H]3CC[C@@H]4C[C@H](OC(=O)[C@@H](N)CCC(=O)O)CC[C@]4(C)[C@H]3CC[C@]12C [Example 9, 20-Oxo-5β-pregnan-3α-yl L-glutamyl 1-ester]
- total path in AAPA after ischemia/hypoxia (rats [1]; 1 mg/kg i.p.): None of the experimental condition affected locomotion in AAPA
- cognitive deficit in AAPA (entrances) after ischemia/hypoxia (rats [1]; [3]): improves cognitive deficit induced by ischemic/hypoxic procedures in AAPA task
- motor changes in rotarod and beam walking after ischemia/hypoxia (rats [1]; [3]): has no effect on disturbance of motor changes in rotarod and beam walking test
- number of entrances in AAPA after NMDA lesion (Long-Evans rats; 0.01 mg/kg s.c., 30 min after lesion): improved the subsequent performance in the AAPA task
- maximum time avoided in AAPA after NMDA lesion (Long-Evans rats; 0.01 mg/kg s.c., 30 min after lesion, or 30 min prior to and after lesion): had beneficial effect in lesioned animals
- number of entrances in AAPA after NMDA lesion (Long-Evans rats; 0.01 mg/kg s.c., 30 min prior to and after lesion): the alleviation was not significant
- number of entrances in AAPA after NMDA lesion (Long-Evans rats; 0.01 mg/kg s.c., longer intervals from the lesion): exerted no effect after longer intervals from the lesion
- maximum time avoided in AAPA after NMDA lesion (Long-Evans rats; 0.1 mg/kg s.c.): tended to alleviate the performance of rats compared to lesioned animals without treatment
- number of entrances in AAPA after NMDA lesion (Long-Evans rats; 0.1 mg/kg s.c., 30 min after lesion): non-significantly improved the behavioral performance
- maximum time avoided in AAPA after NMDA lesion (Long-Evans rats; [4]): caused a significant improvement of rat performance
- number of entrances in AAPA after NMDA lesion (Long-Evans rats; [4]): significant protective effect against hippocampal lesion
- number of entrances in AAPA after NMDA lesion (Long-Evans rats; 10 mg/kg s.c., other delays): No improvement was seen at other delays
- time spent floating / time to immobility in forced swim test (rats [2]): spent significantly less time by floating, in comparison to controls
- spontaneous EEG power (Wistar rats; 60 min and 180 min after application): changes the EEG power at the shorter interval
- duration and number of spike-wave afterdischarges (Wistar rats; higher dose (10 mg/kg)): tended to increase these parameter
- duration and number of spike-wave afterdischarges (Wistar rats; low dose (0.01 mg/kg)): tended to slightly decrease both duration and number of spike-wave episodes
